The values below come from publication PMC9964319, “Half-Sandwich Rhodium Complexes with Releasable N-Donor Monodentate Ligands: Solution Chemical Properties and the Possibility for Acidosis Activation” (Pharmaceutics, 2023).

A short description of data set [1]: Proton dissociation constants of the coordinated water in [M(arene)(N,N/O)(H2O)]2+/+ complexes (UV-vis titration). The text has this:
The proton dissociation of the aqua ligand in the [M(arene)(N,N/O)(H2O)]^2+/+ complexes (Scheme 2) results in the inert mixed-hydroxido species (general formula: [M(arene)(N,N/O)(OH)]^+/0).

Data set [2] concerns E. coli 32313 (resistant). The data set is described as follows: Antibacterial assay, MIC in 96-well plates at different pH. Format: cell-based. The conditions noted are these: E. coli resistant, after one day, read-out: MIC. The text has this: (§1) The antibacterial effect was studied in two Gram-positive and in two Gram-negative strains. The Gram-positive S. aureus ATCC 25923 (ATCC, Manassas, VA, USA) is a methicillin-susceptible reference bacterial strain, while S. aureus 272123 is a clinical isolate and resistant to methicillin and ofloxacin (MRSA), which was given by Prof. Dr. Leonard Amaral (Institute of Hygiene and Tropical Medicine, Lisbon, Portugal). The Gram-negative strains were E. coli ATCC 25922 (ATCC, Manassas, VA, USA), which is sensitive to antibiotics, and E. coli 32313 (provided by the Institute of Clinical Microbiology, University of Szeged, Hungary), which is resistant to different antibiotics (trimethoprim/sulfamethoxazole, gentamicin, ciprofloxacin, and norfloxacin).
(§2) The minimum inhibitory concentrations (MICs) of the compounds were determined in 96-well plates based on the Clinical and Laboratory Standard Institute guidelines. The compounds were diluted in 100 μL of Mueller Hinton broth. Then, an overnight bacterial culture diluted 10,000 times in 100 μL of medium was added to each well, with the exception of the medium control wells. For each strain and each tested compound, four pH values were set (5, 6, 7, and 8). Each sample was triplicated.

The next data set deals with S. aureus 272123 (MRSA). The description is as above. Type of data set: cell-based. Particulars: read-out: MIC.
Source text: as §1, §2

For data set [3], the system named is S. aureus ATCC 25923 (methicillin-susceptible). Described as above. Format: cell-based. Particulars: S. aureus sensitive, after one day, read-out: MIC.
Source text: as §1, §2

For data set [4], the system named is E. coli ATCC 25922 (sensitive). Described as above. Type of data set: cell-based. The conditions noted are these: E. coli sensitive, after one day, read-out: MIC.
Source text: as §1, §2

A short description of data set [5]: Formation constants of mixed-ligand half-sandwich complexes (UV-vis and 1H NMR). Format: physicochemical. The conditions noted are these: aqua complex + monodentate ligand; I = 0.10 M (KCl); t = 25.0 °C; UV-vis and 1H NMR. The procedure: NMR spectroscopic studies were carried out on a Bruker Avance III HD Ascend 500 Plus instrument. For the aqueous samples, ^1H NMR spectra were recorded with the WATERGATE water suppression pulse scheme using DSS internal standard. The highest peak of DSS was 0.00 ppm. The measurement was very similar to the UV-vis measurement since the complex–to–monodentate ligand ratio was also between 0–10 equivalents; the spectra were recorded after the given waiting time. […] This technique was useful in those cases where no spectral change was visible during the UV-vis titrations.
In both measurement methods, the formation constant (K) was obtained using the computer program PSEQUAD [38].
It is worthwhile to mention that the liberation of the bidentate ligand was not detected even at higher monodentate ligand excess (~10), which means that the disruption of the bond between the bidentate ligand and the metal center is not feasible under these conditions. The calculated formation constants are compared in Figure 5 and are collected in Table S2. The formation of the mixed-ligand complexes was not detected in three cases under the applied conditions, namely [Ru(p-cym)(en)(mim)]^2+, [Ru(p-cym)(phen)(mim)]^2+, and [Ru(p-cym)(en)(Py)]^2+. For these complexes, only a higher limit of the formation constant could be given, assuming that a maximum of 5% of the complex would form (limit of detection) under the conditions used for ^1H NMR spectroscopy. Based on Figure 5, the following trends are observed in the formation constants: (i) [RhCp*(en)(H2O)]^2+ and [RhCp*(phen)(H2O)]^2+ have a stronger monodentate ligand-binding ability than the Ru(p-cym) analogs; (ii) the formation constants of the [Ru(p-cym)(8HQH-1)(N)]^+ complexes are similar or somewhat higher than those of the RhCp* analogs; (iii) a stability trend for the monodentate ligand: mim > bim > Py (iv) and the bidentate ligand: 8HQH-1 > phen ≥ en can be seen.

Data set [6] relates to Colo205 human colon adenocarcinoma cell line (doxorubicin-sensitive). The data set is described as follows: MTT assay, cytotoxicity at pH 6 and 7. Format: cell-based. The conditions noted are these: Colo205, 72 h incubation, read-out: IC50. The procedure: (§3) All cell culture reagents were obtained from Sigma-Aldrich (Merck KGaA, Darmstadt, Germany) and plasticware from Sarstedt (Nümbrecht, Germany). Human colonic adenocarcinoma cell lines Colo205 (catalog number: ATCC-CCL-222) and its doxorubicin-resistant counterpart Colo320 (catalog number: ATCC-CCL-220.1) were purchased from LGC Promochem (Teddington, UK). The cells were cultured in RPMI 1640 medium supplemented with 10% heat-inactivated fetal bovine serum, 2 mM L-glutamine, 1 mM sodium pyruvate, and 100 mM HEPES buffer, adjusting the pH to 6.0 or 7.0. The cells were incubated at 37 °C in a 5% CO2–95% air atmosphere. The semiadherent human colon cancer cells were detached with Trypsin-Versene solution for 5 min at 37 °C.
(§4) The solutions were freshly prepared prior to measurements (see Section 2.1). […] Firstly, these samples were diluted in complete culture medium; then, two-fold serial dilutions of the compounds were prepared in 100 μL of RPMI 1640, horizontally. The semiadherent colonic adenocarcinoma cells were treated with Trypsin-Versene solution. They were adjusted to a density of 1 × 10^4 cells in 100 μL of RPMI 1640 medium and were added to each well, with the exception of the medium control wells. The final volume of the wells containing compounds and cells was 200 μL. Samples were triplicated. The pH of the medium was adjusted to 6.0 or 7.0.
(§5) The culture plates were incubated at 37 °C for 72 h; at the end of the incubation period, 20 μL of MTT solution (from a stock solution of 5 mg/mL) was added to each well. After incubation at 37 °C for 4 h, 100 μL of SDS solution (10% in 0.01 M HCI) was added to each well, and the plates were further incubated at 37 °C overnight. Cell growth was determined by measuring the optical density (OD) at 540/630 nm with a Multiscan EX ELISA reader (Thermo Labsystems, Cheshire, WA, USA). […] Curves were fitted using GraphPad Prism software (2022, version 9.4.1, Graphpad Software (LLC) d.b.a Dotmatics, San Diego, CA, USA) using the sigmoidal dose–response model (comparing variable and fixed slopes).
(§6) The pH-dependent solution speciation of the selected mixed-ligand complexes is an important feature in the hypothesized mechanism of action, and the modeling of acidosis is necessary for the in vitro anticancer assays. In order to find out the cytotoxicity difference based on the pH of the medium, cytotoxic activity was determined at pH 6 and 7 by MTT assay in two human colon adenocarcinoma cell lines (doxorubicin-sensitive Colo205 and doxorubicin-resistant Colo320). […] The mixed-ligand complexes were prepared prior to the measurements, as was already described in Section 2.1. With this method, the effect of the different counter ions could be avoided, and a more adequate comparison of the mixed-ligand complexes could be conducted.
Background: Tetrazolium assays rely on reduction of a dye to a coloured formazan, in cell work by metabolically active cells.

The test system of data set [7] is Colo320 human colon adenocarcinoma cell line (doxorubicin-resistant). The data set is described as follows: MTT assay, cytotoxicity at pH 6 and 7. Type of data set: cell-based. The conditions noted are these: Colo320, 72 h incubation, read-out: IC50. The method, then:
as §3, §4, §5, §6

Data set [8] in a line: Computed fractions of mixed-ligand complexes as function of pH from formation constants. The conditions noted are these: for fraction of the active form (computed): pH 6.0. Format: physicochemical. The procedure:
With the help of these formation constants, the extent of complex formation can be estimated for a chosen monodentate ligand—complex chemical system under the desired conditions (concentration and pH). Figure 6 and Figure S25 show the computed fractions of the formed, mixed-ligand complexes between pH = 5 and 8 and at a 100 μM concentration (metal complex-to-monodentate ligand ratio = 1:1). The fraction at pH = 7.4 and at pH 6.0–6.7 were compared to each other.
As an example, the fractions of [Ru(p-cym)(8HQH−1)(mim)]^+ are shown in Figure S26 with decreasing concentration.
Formation constants shown in Figure 5 and in Table S2 were used for the calculation. Percentages indicate the fraction at pH = 7.4 (blue line) and in the range between pH = 6.0–6.7 (pink rectangle: possible pH of tumor microenvironment during acidosis).

[9] abbreviates: pH 6, listed as [RhCp*(phen)Cl]Cl +Py.
Setting [10] is: pH 7, listed as [RhCp*(phen)Cl]Cl +Py.
Setting [11] is: I = 0.10 M (KCl), t = 25.0 °C, UV-vis.

Read-outs that look alike come from different tables or passages of the source.

Take `Cc1c(C)c(C)[c-](C)c1C.O.[O-]c1cccc2cccnc12.[Rh+3]` [[RhCp*(8HQH-1)(H2O)]+]: the “pKa of the coordinated water molecule” value in data set [1] was found to be 10.6±0.1.

What is called MIC is the lowest concentration that inhibits growth of the organism. The IC50 is the midpoint of a concentration-inhibition curve. As to `Cc1c(C)c(C)[c-](C)c1C.[Cl-].[Rh+2][O]c1cccc2cccnc12.c1ccncc1` [[RhCp*(8HQH−1)Cl] +Py], the MIC is listed as above 100 µM in data set [2] (pH 6); above 100 µM in [2] (pH 7); 50 µM in the data set on S. aureus 272123 (MRSA) (pH 6, after one day); 12.5 µM with S. aureus 272123 (MRSA) (pH 7, after one day); 12.5 µM in [3] (pH 7); above 100 µM in data set [4] (pH 6). In addition, the MIC in [4] (pH 7) is on record as above 100 µM. In addition, the “Formation constant logK of mixed-ligand complex” value (shortened to “Formation constant logK”) in [5] is given as 3.0 ± 0.1. Besides, the IC50 in data set [6] (pH 6) was determined as 7.2 ± 0.4 µM; in data set [6] (pH 7), 7.3 ± 0.3 µM; in data set [7] (pH 6), 6.2 ± 0.5 µM; in data set [7] (pH 7), 5.9 ± 0.1 µM.

`Cc1c(C)c(C)[c-](C)c1C.[Rh+3].c1ccncc1.c1cnc2c(c1)ccc1cccnc12` [[RhCp*(phen)(Py)]^2+]: the MIC is recorded as above 100 µM in data set [2] (pH 5); above 100 µM in [2] (setting [9]); above 100 µM in [2] (setting [10]); above 100 µM in data set [2] (pH 8); above 100 µM in the data set with S. aureus 272123 (MRSA) (pH 5, after one day); above 100 µM in the data set on S. aureus 272123 (MRSA) (pH 6, after one day, listed as [RhCp*(phen)Cl]Cl +Py). Further, the MIC with S. aureus 272123 (MRSA) (pH 7, after one day, listed as [RhCp*(phen)Cl]Cl +Py) was above 100 µM; with S. aureus 272123 (MRSA) (pH 8, after one day), above 100 µM; in data set [3] (setting [10]), above 100 µM; in data set [3] (pH 8) it was above 100 µM; in data set [4] (pH 5), above 100 µM; in data set [4] (setting [9]) it was above 100 µM. Also, the MIC in data set [4] (setting [10]) and in [4] (pH 8) was above 100 µM in each case. In addition, in data set [5], the “Formation constant logK” value is 4.1 ± 0.1.

Take `Cc1ccc(C(C)C)cc1.O.[O-]c1cccc2cccnc12.[Ru+2]` [[Ru(p-cym)(8HQH-1)(H2O)]+]: the “pKa of the coordinated water molecule” value in [1] (setting [11]) is listed as 9.31±0.01.

For `Cc1ccc(C(C)C)cc1.Cn1ccnc1.[O-]c1cccc2cccnc12.[Ru+2]` [[Ru(p-cym)(8HQH−1)(mim)]^+], the “difference in computed fraction (dissociated) when pH decreases from 7.4 to 6.0” value in data set [8] (100 μM, ratio 1:1) came out at 10%. For the same compound, the “fraction of the active form (computed)” value in data set [8] (concentration 1 mM) is 5%; in data set [8] (concentration two orders of magnitude below 1 mM), 41%.

On to `Cc1ccc(C(C)C)cc1.NCCN.O.[Ru+2]` [[Ru(p-cym)(en)(H2O)]2+], for which, in [1] (setting [11]), the “pKa of the coordinated water molecule” value was determined as 9.03±0.01.

As for `Cc1ccc(C(C)C)cc1.O.[Ru+2].c1cnc2c(c1)ccc1cccnc12` [[Ru(p-cym)(phen)(H2O)]2+], the “pKa of the coordinated water molecule” value in data set [1] (setting [11]) is recorded as 8.91±0.01.

Consider `Cc1ccc(C(C)C)cc1.[Ru+][O]c1cccc2cccnc12.c1ccc2[nH]cnc2c1` [[RuCym(8HQH-1)(H2O)]+ + bim], for which the “Formation constant logK” value in data set [5] is on record as 2.9 ± 0.1.

Consider `Cc1ccc(C(C)C)cc1.NCCN.[Ru+2].c1ccc2[nH]cnc2c1` [[RuCym(en)(H2O)]2+ + bim], for which the “Formation constant logK” value in [5] amounted to 3.5 ± 0.1.
